{"source": "patent US11730734B2", "about": "“Use of ATR and Chk1 inhibitor compounds” (University of Florida Research Foundation, Incorporated, priority 2016, dated 2023)", "key": {"[1]": {"system": "ATR", "assay": "ATR activation (pATR S428 immunofluorescence) in HSV-1 infected U2OS cells", "type": "cell-based", "details": "for ATR activation (pATR labeling): 5 h", "method": "(§1) Cells were plated at 5×10^5 cells per well in 6-well plates and the following morning incubated with inhibitors. Following 1 h pre-incubation with inhibitors, cells were infected with HSV-1 at an MOI=0.1 in a volume of 200 uL for 1 h, viral inoculum removed, and cells overlaid with media containing fresh inhibitors, and cultured for 48 h. Following 48 h, cells and supernatant were harvested by scraping, separated into two Eppendorf tubes, and centrifuged at 10,000×g for 40 min. The cell pellet from one tube was used for extraction of DNA (DNazol according to manufacturer's recommendation, ThermoFisher Sci. catalog no. 10503027) and the second pellet was re-suspended in 200 uL serum-free MEM, freeze-thawed 3×, and virus titered on rabbit skin cells. For HSV-1 titering, rabbit skin cells were plated at 150,000 cells/well of 24-well plates and the following day infected with 10-fold serial dilutions of virus harvested from antiviral experiments. Cells were incubated for 48 h, stained with 1% crystal violet solution, and plaques counted from three separate wells for each experimental sample. Q-PCR was conducted using 20 ng input DNA, TaqMan® Fast Universal PCR 2× Master Mix (Applied Biosystems, catalog no. 4352041) along with TaqMan probes and target-specific primers (Applied Biosystems, Assays by Design part no. 4331348) against HSV-1 polymerase. Samples were run on a StepOnePlus Real-Time PCR System (Applied Biosystems) using fast cycling: denaturation at 95° C. for 20 sec followed by 40 cycles at 95° C. for 1 sec and 60° C. for 20 sec. Additional experimental compounds were also tested as follows: […] Cyclohexamide (Sigma, catalog no. C7698) or DMSO vehicle was added to the overlay media at 50 ug/mL and the infection allowed to proceed for 5 h. (2) For replication inhibition, phosphonoacetic acid (PAA) was added at time of virus adsorption and included in overlay media at 400 ug/mL for 5 h. (3) A final [3 mM] hydroxyurea was added at the time of cell plating and incubated for 18 h. […]"}, "[2]": {"system": "Chk1", "assay": "Chk1 activation (pChk1 S345 Western blot) in HSV-1 infected cells", "type": "cell-based", "method": "5×10^5 cells were plated on 6-well plates and infected the following day with 17syn+(MOI=10). At the indicated times, cells were lysed in buffer containing 1% NP-40, 150 mM sodium chloride, 20 mM Tris-HCL pH 8.0, 2 mM EDTA, and 5% glycerol supplemented with phosphatase and protease inhibitor cocktails (Roche, PhosSTOP tablets; catalog no. 04906837001; ThermoFisherSci., Halt Protease Inhibitor Cocktail, catalog no. 1862209). For SDS-PAGE, 20 ug of protein was mixed with NuPAGE 4×LDS sample buffer (ThermoFisher Sci., catalog no. NP0007) along with NuPAGE Sample Reducing Agent (ThermoFisher Sci., catalog no. NP0004) and run on 4-12% Bis-Tris NuPAGE gels (ThermoFisher Sci.) with NuPAGE MOPS SDS running buffer (ThermoFisher Sci., catalog no. NP000102). Gels were transferred onto 0.22 μm PVDF in Towbin buffer (0.2 M Glycine, 25 mM Tris Base) containing 20% MeOH for 2 h under constant voltage (30V), the membrane blocked with 5% non-fat dry milk (NFDM)-TBST (20 mM Tris-HCL pH 7.4, 150 mM NaCl, 0.1% Tween-20) and probed with antibodies diluted in 1% NFDM-TBST overnight at 4° C. For ATR and ATM western blots, samples were processed as above except DTT (50 mM, Cell Signaling, catalog no. 7016) was used as the reducing agent and samples were run on NuPAGE Novex 3-8% Tris-acetate gels (ThermoFisher Sci.) with NuPAGE Tris-acetate SDS running buffer (ThermoFisher Sci., catalog no. LA0041). […]"}, "[3]": {"system": "Chk1", "assay": "Chk1 activation following KD6 infection of permissive Vero cell line K5", "type": "cell-based", "details": "KD6 infection of Vero cell line K5, cycloheximide"}, "[4]": {"system": "viral replication centers", "assay": "Viral replication center formation / maturation (immunofluorescence)", "type": "cell-based, HSV-1", "details": "for replication center formation: 5 h", "method": "as §1"}, "[5]": {"system": "ICP4", "assay": "ICP4 expression by immunofluorescence in HSV-1 infected cells", "type": "cell-based", "details": "VE-822 10 μM, 17+HSV-1 MOI=10, 5 h.p.i.", "method": "(§2) U2OS cells were plated onto coverslips at 75,000 cells per well of 24-well plates and the following day infected at an MOI=10 for the indicated times.\n(§3) Thereafter, cells were processed for immunofluorescence in one of two ways that incorporated an Fc receptor blocking step: (1) cells were fractionated in situ by pre-extraction following previously published procedures; briefly, cells were incubated in Cytoskeleton Buffer (CB; 100 mM PIPES, 300 mM sucrose, 100 mM NaCl, 3 mM MgCl2, 1 mM EGTA) for 5 min on ice followed by incubation in Cytoskeleton Stripping Buffer (CSK; 10 mM Tri-HCL pH 7.4, 10 mM NaCl, 3 mM MgCl2, 1% Tween-40, 1% Tween-20, 0.5% sodium deoxycholate) for 5 min on ice. Cells were then washed 3× with PBS and fixed with Streck fixative (150 mM 2-bromo-2-nitro-1,3-propanediol, 108 mM diazolidinyl urea, 10 mM sodium citrate, 50 mM EDTA) for 30 min at RT, washed with PBS, and permeabilized with 0.5% Triton X-100 in 100 mM Tris-HCL pH 7.4 plus 50 mM EDTA for 15 min at RT. Cells were then incubated sequentially with Fc Receptor Blocker (Innovex Biosciences, catalog no. NB309) for 30 min at RT followed by blocking buffer (5% goat serum, 0.1% NP-40, 20 mM Tris-HCL pH 7.4, 150 mM NaCl) for 30 min at RT. (2) In some cases cells were fixed in 3.7% paraformaldehyde in PBS for 5 min at RT followed by blocking with Fc Receptor Blocker and blocking buffer as above. […]"}, "[6]": {"system": "ICP8", "assay": "ICP8 expression in HSV-1 infected cells (data not shown)", "type": "cell-based", "details": "VE-822 10 μM", "method": "as §2, §3"}, "[7]": {"system": "17+HSV-1", "assay": "Antiviral assay, HSV-1 titering (viral titer / PFU on rabbit skin cells)", "type": "cell-based", "details": "U2OS cells, 17+HSV-1 MOI=0.1, 48 h; ATR inhibitors 10 μM, Chk1 inhibitors 250 nM, aphidicolin 4 μM, KU55933 10 μM, Chk2 inhibitor II 5 μM, NU7441 1 μM", "quoted_text": "The following ATR inhibitors were purchased from Selleckchem and used at 10 μM final: VE-822 (catalog no. 57102 Batch No. 1), VE-821 (catalog no. S8007), AZD6738 (catalog no. S7693), and AZ20 (catalog no. S7050). Chk1 inhibitors were purchased from Axon Medchem and used at 250 nM final concentration (CHIR 124, catalog no. Axon 1636 and PF 477736, catalog no. Axon 1379). Other chemical inhibitors and their final concentrations described in this study are: Chk2 inhibitor II hydrate (5 μM, Sigma, catalog no. C3742), ATM inhibitor KU55933 (10 μM, Tocris, catalog no. 3544), DNA-PK inhibitor NU7441 (1 μM, Tocris, catalog no. 3712), and aphidicolin (4 μM, Sigma, catalog no. A0781).\nCells were plated at 5×10^5 cells per well in 6-well plates and the following morning incubated with inhibitors. Following 1 h pre-incubation with inhibitors, cells were infected with HSV-1 at an MOI=0.1 in a volume of 200 uL for 1 h, viral inoculum removed, and cells overlaid with media containing fresh inhibitors, and cultured for 48 h. Following 48 h, cells and supernatant were harvested by scraping, separated into two Eppendorf tubes, and centrifuged at 10,000×g for 40 min. The cell pellet from one tube was used for extraction of DNA (DNazol according to manufacturer's recommendation, ThermoFisher Sci. catalog no. 10503027) and the second pellet was re-suspended in 200 uL serum-free MEM, freeze-thawed 3×, and virus titered on rabbit skin cells. For HSV-1 titering, rabbit skin cells were plated at 150,000 cells/well of 24-well plates and the following day infected with 10-fold serial dilutions of virus harvested from antiviral experiments. Cells were incubated for 48 h, stained with 1% crystal violet solution, and plaques counted from three separate wells for each experimental sample. […] Additional experimental compounds were also tested as follows: (57) Cyclohexamide (Sigma, catalog no. C7698) or DMSO vehicle was added to the overlay media at 50 ug/mL and the infection allowed to proceed for 5 h. […]"}}, "note": "“Also recorded” adds a separate entry of the source.", "data": [{"smiles": "C[C@@H]1C[C@@H]([C@H](O)CC2CC(=O)NC(=O)C2)C(=O)[C@@H](C)C1", "note": "[cycloheximide]", "values": [{"measurement": "ATR activation (pATR labeling)", "setting": "[1]; cycloheximide 50 ug/mL in overlay media", "value": "completely blocked ATR activation; also recorded: complete suppression; also recorded: completely suppresses pATR labeling"}, {"measurement": "Chk1 activation", "setting": "[2]; cycloheximide", "value": "complete suppression"}, {"measurement": "Chk1 activation", "setting": "[3]", "value": "blocked"}, {"measurement": "replication center formation", "setting": "[4]; cycloheximide 50 ug/mL", "value": "retards replication center formation"}]}, {"smiles": "O=C(O)CP(=O)(O)O", "note": "[PAA, phosphonoacetic acid]", "values": [{"measurement": "ATR activation (pATR labeling)", "setting": "[1]; PAA 400 ug/mL from virus adsorption", "value": "partially suppressed ATR activation; also recorded: partial suppression; also recorded: partially blocks pATR labeling"}, {"measurement": "replication center formation", "setting": "[4]; PAA 400 ug/mL", "value": "retards replication center formation"}]}, {"smiles": "CNCc1ccc(-c2cc(-c3nc(-c4ccc(S(=O)(=O)C(C)C)cc4)cnc3N)on2)cc1", "note": "[VE-822]", "values": [{"measurement": "expression of ICP4", "setting": "[5]", "value": "blocked expression of ICP4; also recorded: blocking expression of both ICP4 and ICP8"}, {"measurement": "ATR activation (pATR)", "setting": "[1]; VE-822 10 μM, 17+HSV-1 MOI=10, 5 h.p.i.", "value": "blocked ATR activation; also recorded: blocks activation of both ATR and Chk1"}, {"measurement": "Chk1 activation / phosphorylation", "setting": "[2]; VE-822 10 μM, 17+HSV-1 MOI=10, Western blot", "value": "Chk1 activation was also blocked; also recorded: blocks activation of both ATR and Chk1; also recorded: blocks phosphorylation of Chk1"}, {"measurement": "expression of ICP8", "setting": "[6]", "value": "blocked expression; also recorded: blocking expression of both ICP4 and ICP8"}, {"measurement": "maturation of replication centers", "setting": "[4]; VE-822, during HSV-1 infection", "value": "blocks maturation of replication centers"}]}, {"smiles": "Cn1cc(-c2[nH]c3cc(NC(=O)[C@H](N)C4CCCCC4)cc4c3c2C=NNC4=O)cn1", "note": "[PF477736]", "values": [{"measurement": "viral titers (HSV-1 PFU, virus production)", "setting": "[7]", "value": "significantly impact virus production"}]}, {"smiles": "C[C@@]1(CO)[C@H](O)CC[C@@]2(C)[C@H]1CC[C@H]1C[C@@H]3C[C@@]12CC[C@]3(O)CO", "note": "[aphidicolin]", "values": [{"measurement": "viral titers (HSV-1 PFU, virus production)", "setting": "[7]", "value": "significantly inhibit viral titers; also recorded: significantly impact virus production"}]}]}
